Experimental data from ChEMBL document CHEMBL5678804 (Cancer Cell, 2011).
Activity calls are given as the source filed them. No cut-off for these calls is given here.

Assays:
[1] = biological target: SRSF protein kinase 3 (Homo sapiens, UniProt Q9UPE1); test: Inhibition of human wild type MSSK1 using RBER-CHKtide as substrate preincubated for 2 hrs followed by ATP addition and measured every 2 mins for […] by spectrophotometric analysis
[2] = biological target: Serine/threonine-protein kinase A-Raf (Homo sapiens, UniProt P10398); test: Inhibition of human ARAF preincubated for 2 hrs followed by ATP addition and measured every 2 mins for […] by spectrophotometric analysis
[3] = biological target: Glycogen synthase kinase-3 beta (Homo sapiens, UniProt P49841); test: Inhibition of human wild type GSK3 beta using RBER-CHKtide as substrate preincubated for 2 hrs followed by ATP addition and measured every 2 mins for […] by spectrophotometric analysis
[4] = biological target: Misshapen-like kinase 1 (Homo sapiens, UniProt Q8N4C8); test: Inhibition of human wild type MINK using RBER-CHKtide as substrate preincubated for 2 hrs followed by ATP addition and measured every 2 mins for […] by spectrophotometric analysis
[5] = biological target: Tyrosine-protein kinase SYK (Homo sapiens, UniProt P43405); test: Inhibition of human wild type SYK using PolyEY as substrate preincubated for 2 hrs followed by ATP addition and measured every 2 mins for […] by spectrophotometric analysis
[6] = biological target: Dual specificity mitogen-activated protein kinase kinase 6 (Homo sapiens, UniProt P52564); test: Inhibition of human wild type MKK6 using p38-alpha KA as substrate preincubated for 2 hrs followed by ATP addition and measured every 2 mins for […] by spectrophotometric analysis
[7] = biological target: Vascular endothelial growth factor receptor 3 (Homo sapiens, UniProt P35916); test: Inhibition of human wild type FLT4 using PolyEY as substrate preincubated for 2 hrs followed by ATP addition and measured every 2 mins for […] by spectrophotometric analysis
[8] = biological target: Bcr/Abl fusion protein (Homo sapiens) (UniProt P00519+P11274); test: Inhibition of BCR-ABL1 phosphorylation in Ph+ B-ALL patient with […] mutation derived human Leukemia cell at 50 to 1000 nM by immunoblot analysis; type: cell-based; conditions: dose 50-1000 nM
[9] = biological target: Macrophage-stimulating protein receptor (Homo sapiens, UniProt Q04912); test: Inhibition of human wild type RON using PolyEY as substrate preincubated for 2 hrs followed by ATP addition and measured every 2 mins for […] by spectrophotometric analysis
[10] = biological target: NUAK family SNF1-like kinase 2 (Homo sapiens, UniProt Q9H093); test: Inhibition of human wild type SNARK using Histon H2B as substrate preincubated for 2 hrs followed by ATP addition and measured every 2 mins for […] by spectrophotometric analysis
[11] = biological target: Death-associated protein kinase 1 (Homo sapiens, UniProt P53355); test: Inhibition of human wild type DAPK1 using RBER-GSK3([…] to […]) as substrate preincubated for 2 hrs followed by ATP addition and measured every 2 mins for […] by spectrophotometric analysis
[12] = biological target: Serine/threonine-protein kinase N1 (Homo sapiens, UniProt Q16512); test: Inhibition of human wild type PKN1 using RBER-CHKtide as substrate preincubated for 2 hrs followed by ATP addition and measured every 2 mins for […] by spectrophotometric analysis
[13] = biological target: Serine/threonine-protein kinase Chk1 (Homo sapiens, UniProt O14757); test: Inhibition of human wild type CHK1 using RBER-CHKtide as substrate preincubated for 2 hrs followed by ATP addition and measured every 2 mins for […] by spectrophotometric analysis
[14] = biological target: Serine/threonine-protein kinase PLK1 (Homo sapiens, UniProt P53350); test: Inhibition of human wild type PLK1 using RBER-CHKtide as substrate preincubated for 2 hrs followed by ATP addition and measured every 2 mins for […] by spectrophotometric analysis
[15] = biological target: MAP kinase-interacting serine/threonine-protein kinase 2 (Homo sapiens, UniProt Q9HBH9); test: Inhibition of human wild type MNK2 using RB-S6P as substrate preincubated for 2 hrs followed by ATP addition and measured every 2 mins for […] by spectrophotometric analysis
[16] = biological target: Activin receptor type-1-like (Homo sapiens, UniProt P37023); test: Inhibition of human wild type ALK1 using Casein as substrate preincubated for 2 hrs followed by ATP addition and measured every 2 mins for […] by spectrophotometric analysis
[17] = biological target: Mitogen-activated protein kinase 9 (Homo sapiens, UniProt P45984); test: Inhibition of human wild type JNK2alpha2 using ATF2 as substrate preincubated for 2 hrs followed by ATP addition and measured every 2 mins for […] by spectrophotometric analysis
[18] = biological target: Fibroblast growth factor receptor 3 (Homo sapiens, UniProt P22607); test: Inhibition of human wild type FGFR3 using PolyEY as substrate preincubated for 2 hrs followed by ATP addition and measured every 2 mins for […] by spectrophotometric analysis
[19] = test system: BaF3; test: In vivo inhibition of BCR-ABL1 T315I signalling in mouse BaF3 cells harbouring BCR-ABL1 T315I mutant xenografted in Balb/c mouse model at 100 mg/kg, po administered as single dose measured after 8 hrs by flow cytometry analysis; type: functional, organism-based
[20] = biological target: Dual specificity tyrosine-phosphorylation-regulated kinase 3 (Homo sapiens, UniProt O43781); test: Inhibition of human wild type DYRK3 using RBER-IRStide as substrate preincubated for 2 hrs followed by ATP addition and measured every 2 mins for […] by spectrophotometric analysis
[21] = biological target: Cytoplasmic tyrosine-protein kinase BMX (Homo sapiens, UniProt P51813); test: Inhibition of human wild type Bmx using PolyEY as substrate preincubated for 2 hrs followed by ATP addition and measured every 2 mins for […] by spectrophotometric analysis
[22] = biological target: Myosin light chain kinase 2, skeletal/cardiac muscle (Homo sapiens, UniProt Q9H1R3); test: Inhibition of human wild type MLCK2 using RB-S6P as substrate preincubated for 2 hrs followed by ATP addition and measured every 2 mins for […] by spectrophotometric analysis
[23] = biological target: Mitogen-activated protein kinase 11 (Homo sapiens, UniProt Q15759); test: Inhibition of human wild type p38 beta using ATF2 as substrate preincubated for 2 hrs followed by ATP addition and measured every 2 mins for […] by spectrophotometric analysis
[24] = biological target: Mitogen-activated protein kinase 14 (Homo sapiens, UniProt Q16539); test: Inhibition of human wild type p38 alpha using ATF2 as substrate preincubated for 2 hrs followed by ATP addition and measured every 2 mins for […] by spectrophotometric analysis
[25] = biological target: Mitogen-activated protein kinase 12 (Homo sapiens, UniProt P53778); test: Inhibition of human wild type p38 gamma using RBER-IRStide as substrate preincubated for 2 hrs followed by ATP addition and measured every 2 mins for […] by spectrophotometric analysis
[26] = biological target: Mitogen-activated protein kinase kinase kinase 5 (Homo sapiens, UniProt Q99683); test: Inhibition of human wild type ASK1 using RBER-GSK3([…] to […]) as substrate preincubated for 2 hrs followed by ATP addition and measured every 2 mins for […] by spectrophotometric analysis
[27] = biological target: Megakaryocyte-associated tyrosine-protein kinase (Homo sapiens, UniProt P42679); test: Inhibition of human wild type CTK using PolyEY as substrate preincubated for 2 hrs followed by ATP addition and measured every 2 mins for […] by spectrophotometric analysis
[28] = Inhibition of human wild type CDK2/A using RBER-CHKtide as substrate preincubated for 2 hrs followed by ATP addition and measured every 2 mins for […] by spectrophotometric analysis

Sequence of Vascular endothelial growth factor receptor 3 (P35916 whole entry, the tested form may be a part): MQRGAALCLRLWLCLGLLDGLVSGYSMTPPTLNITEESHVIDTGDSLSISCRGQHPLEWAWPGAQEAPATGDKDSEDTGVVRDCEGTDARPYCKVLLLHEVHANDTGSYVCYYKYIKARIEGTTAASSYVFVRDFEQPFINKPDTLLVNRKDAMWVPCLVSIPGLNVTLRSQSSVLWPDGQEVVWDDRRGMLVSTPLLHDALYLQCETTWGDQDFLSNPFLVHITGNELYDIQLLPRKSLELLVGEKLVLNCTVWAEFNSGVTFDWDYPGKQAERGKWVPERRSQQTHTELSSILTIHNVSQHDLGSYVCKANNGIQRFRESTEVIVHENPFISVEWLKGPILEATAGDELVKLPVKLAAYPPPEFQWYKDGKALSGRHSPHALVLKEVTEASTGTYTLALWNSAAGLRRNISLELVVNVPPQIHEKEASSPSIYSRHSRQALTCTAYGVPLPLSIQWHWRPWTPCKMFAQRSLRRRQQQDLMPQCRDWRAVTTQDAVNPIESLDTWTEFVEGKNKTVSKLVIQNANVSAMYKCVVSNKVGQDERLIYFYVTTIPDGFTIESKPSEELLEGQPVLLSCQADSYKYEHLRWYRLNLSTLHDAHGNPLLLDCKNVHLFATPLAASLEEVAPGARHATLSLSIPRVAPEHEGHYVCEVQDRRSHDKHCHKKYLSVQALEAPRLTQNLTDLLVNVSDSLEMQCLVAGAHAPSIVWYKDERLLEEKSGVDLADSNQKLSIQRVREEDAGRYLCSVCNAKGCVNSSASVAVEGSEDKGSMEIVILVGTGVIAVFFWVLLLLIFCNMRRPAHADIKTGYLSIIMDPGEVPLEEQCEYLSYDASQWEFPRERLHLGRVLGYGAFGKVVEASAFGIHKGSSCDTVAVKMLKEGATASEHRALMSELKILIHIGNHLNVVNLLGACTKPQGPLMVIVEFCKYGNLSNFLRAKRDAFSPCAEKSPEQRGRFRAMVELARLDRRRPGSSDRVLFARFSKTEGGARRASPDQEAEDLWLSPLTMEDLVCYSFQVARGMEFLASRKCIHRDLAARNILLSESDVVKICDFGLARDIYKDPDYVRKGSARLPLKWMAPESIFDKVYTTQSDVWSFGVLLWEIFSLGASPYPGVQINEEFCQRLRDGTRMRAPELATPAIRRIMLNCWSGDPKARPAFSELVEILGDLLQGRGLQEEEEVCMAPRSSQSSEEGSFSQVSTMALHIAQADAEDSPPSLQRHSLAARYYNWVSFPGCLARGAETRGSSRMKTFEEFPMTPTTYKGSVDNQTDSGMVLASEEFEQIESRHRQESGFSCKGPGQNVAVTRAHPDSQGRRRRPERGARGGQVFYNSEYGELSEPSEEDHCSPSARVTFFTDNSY
Sequence of Misshapen-like kinase 1 (Q8N4C8 whole entry): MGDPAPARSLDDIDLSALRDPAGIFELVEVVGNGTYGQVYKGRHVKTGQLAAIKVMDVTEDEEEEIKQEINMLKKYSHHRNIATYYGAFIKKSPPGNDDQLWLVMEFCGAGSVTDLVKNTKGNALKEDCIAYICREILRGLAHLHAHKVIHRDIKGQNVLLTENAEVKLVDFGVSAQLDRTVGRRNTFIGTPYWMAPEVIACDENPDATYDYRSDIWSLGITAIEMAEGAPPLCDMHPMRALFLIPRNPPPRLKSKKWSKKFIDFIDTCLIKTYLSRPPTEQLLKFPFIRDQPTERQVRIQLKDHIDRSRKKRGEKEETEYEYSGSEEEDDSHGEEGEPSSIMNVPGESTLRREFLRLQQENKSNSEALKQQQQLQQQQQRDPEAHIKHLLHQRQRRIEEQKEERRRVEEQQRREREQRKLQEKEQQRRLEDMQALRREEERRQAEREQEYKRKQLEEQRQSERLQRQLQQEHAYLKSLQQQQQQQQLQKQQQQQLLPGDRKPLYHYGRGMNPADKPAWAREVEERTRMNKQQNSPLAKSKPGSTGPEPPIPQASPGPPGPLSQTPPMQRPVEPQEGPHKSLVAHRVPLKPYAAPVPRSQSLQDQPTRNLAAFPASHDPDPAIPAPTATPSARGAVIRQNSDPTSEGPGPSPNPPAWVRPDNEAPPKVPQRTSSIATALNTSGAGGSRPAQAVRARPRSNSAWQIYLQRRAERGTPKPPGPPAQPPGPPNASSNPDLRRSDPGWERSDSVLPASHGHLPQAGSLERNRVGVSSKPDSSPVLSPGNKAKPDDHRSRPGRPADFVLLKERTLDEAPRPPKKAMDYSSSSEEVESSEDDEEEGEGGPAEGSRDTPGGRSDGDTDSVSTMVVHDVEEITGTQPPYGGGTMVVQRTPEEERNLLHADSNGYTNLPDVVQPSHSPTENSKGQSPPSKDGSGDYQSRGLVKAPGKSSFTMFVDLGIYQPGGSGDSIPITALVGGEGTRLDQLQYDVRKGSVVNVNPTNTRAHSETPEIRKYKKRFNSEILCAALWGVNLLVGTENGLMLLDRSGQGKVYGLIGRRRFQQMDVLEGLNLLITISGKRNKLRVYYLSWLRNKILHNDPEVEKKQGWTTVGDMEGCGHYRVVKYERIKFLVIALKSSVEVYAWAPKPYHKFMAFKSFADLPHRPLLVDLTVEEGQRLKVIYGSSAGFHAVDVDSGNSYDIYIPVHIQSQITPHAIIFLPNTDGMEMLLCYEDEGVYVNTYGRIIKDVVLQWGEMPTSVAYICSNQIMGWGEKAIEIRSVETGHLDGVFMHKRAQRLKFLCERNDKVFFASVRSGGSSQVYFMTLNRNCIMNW
Sequence of Bcr/Abl fusion protein (Homo sapiens) (P00519 whole entry, looked up, the tested form may be a part): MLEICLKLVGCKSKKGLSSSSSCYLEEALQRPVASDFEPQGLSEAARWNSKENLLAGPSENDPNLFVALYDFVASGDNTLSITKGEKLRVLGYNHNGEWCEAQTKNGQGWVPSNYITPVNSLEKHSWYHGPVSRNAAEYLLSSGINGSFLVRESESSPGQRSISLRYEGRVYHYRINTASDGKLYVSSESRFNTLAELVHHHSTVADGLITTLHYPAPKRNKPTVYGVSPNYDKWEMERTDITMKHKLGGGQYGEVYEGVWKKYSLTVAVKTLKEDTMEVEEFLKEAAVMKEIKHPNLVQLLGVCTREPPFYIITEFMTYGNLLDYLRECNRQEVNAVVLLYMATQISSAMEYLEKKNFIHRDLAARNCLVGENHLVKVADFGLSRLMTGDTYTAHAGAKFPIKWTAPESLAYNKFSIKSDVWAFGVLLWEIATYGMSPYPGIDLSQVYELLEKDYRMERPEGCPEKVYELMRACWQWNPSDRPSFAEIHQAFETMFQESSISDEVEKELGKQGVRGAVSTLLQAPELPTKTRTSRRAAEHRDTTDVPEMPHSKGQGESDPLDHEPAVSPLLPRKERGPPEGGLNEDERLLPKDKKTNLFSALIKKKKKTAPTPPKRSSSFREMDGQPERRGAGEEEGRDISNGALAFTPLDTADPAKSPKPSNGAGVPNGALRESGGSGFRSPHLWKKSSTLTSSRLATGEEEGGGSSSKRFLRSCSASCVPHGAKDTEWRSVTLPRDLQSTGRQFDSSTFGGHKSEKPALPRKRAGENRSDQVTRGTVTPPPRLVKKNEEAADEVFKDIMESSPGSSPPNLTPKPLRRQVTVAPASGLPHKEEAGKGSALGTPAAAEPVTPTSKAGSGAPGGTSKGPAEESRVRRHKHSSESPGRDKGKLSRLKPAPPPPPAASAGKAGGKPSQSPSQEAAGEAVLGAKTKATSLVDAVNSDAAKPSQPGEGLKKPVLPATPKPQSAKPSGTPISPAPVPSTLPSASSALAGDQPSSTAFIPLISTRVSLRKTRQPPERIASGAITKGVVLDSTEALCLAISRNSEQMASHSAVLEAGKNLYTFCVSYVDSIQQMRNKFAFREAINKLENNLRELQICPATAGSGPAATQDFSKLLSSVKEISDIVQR
Sequence of Bcr/Abl fusion protein (Homo sapiens) (P11274 whole entry, looked up, the tested form may be a part): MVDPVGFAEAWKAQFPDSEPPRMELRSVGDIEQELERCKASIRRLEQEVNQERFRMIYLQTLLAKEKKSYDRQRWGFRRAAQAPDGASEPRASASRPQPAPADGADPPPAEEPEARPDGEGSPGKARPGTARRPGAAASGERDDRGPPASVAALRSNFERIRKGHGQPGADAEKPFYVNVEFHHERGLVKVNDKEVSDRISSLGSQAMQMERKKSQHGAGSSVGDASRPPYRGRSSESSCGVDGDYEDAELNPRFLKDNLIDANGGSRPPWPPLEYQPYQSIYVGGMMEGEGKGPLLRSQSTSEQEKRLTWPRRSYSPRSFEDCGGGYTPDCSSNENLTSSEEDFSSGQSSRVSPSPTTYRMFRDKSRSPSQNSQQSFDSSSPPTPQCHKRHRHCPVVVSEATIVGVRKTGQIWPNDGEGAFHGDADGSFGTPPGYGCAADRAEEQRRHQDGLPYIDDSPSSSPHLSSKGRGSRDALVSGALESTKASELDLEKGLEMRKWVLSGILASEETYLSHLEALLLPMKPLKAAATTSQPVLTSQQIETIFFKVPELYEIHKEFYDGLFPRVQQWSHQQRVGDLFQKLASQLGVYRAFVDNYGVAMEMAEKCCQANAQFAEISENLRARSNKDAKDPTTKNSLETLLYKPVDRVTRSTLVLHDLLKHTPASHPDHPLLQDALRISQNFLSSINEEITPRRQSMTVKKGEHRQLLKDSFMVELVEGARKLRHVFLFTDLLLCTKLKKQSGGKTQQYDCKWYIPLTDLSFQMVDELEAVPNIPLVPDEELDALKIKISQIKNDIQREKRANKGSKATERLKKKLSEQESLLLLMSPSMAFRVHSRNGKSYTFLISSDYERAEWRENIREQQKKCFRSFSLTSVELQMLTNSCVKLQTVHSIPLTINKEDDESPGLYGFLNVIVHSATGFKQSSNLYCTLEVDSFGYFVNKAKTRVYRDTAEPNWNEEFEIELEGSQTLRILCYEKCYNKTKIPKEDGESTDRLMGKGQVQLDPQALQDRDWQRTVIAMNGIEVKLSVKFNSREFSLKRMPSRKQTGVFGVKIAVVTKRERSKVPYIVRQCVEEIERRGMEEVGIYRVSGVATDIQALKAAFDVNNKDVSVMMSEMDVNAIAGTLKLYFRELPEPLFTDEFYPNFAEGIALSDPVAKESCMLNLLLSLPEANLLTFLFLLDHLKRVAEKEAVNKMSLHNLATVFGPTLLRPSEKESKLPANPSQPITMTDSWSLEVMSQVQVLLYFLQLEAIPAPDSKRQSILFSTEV

IC50 [1]: > 1000 nM
IC50 [2]: 230 nM
IC50 [3]: > 1000 nM
IC50 [4]: 11 nM
IC50 [5]: 160 nM
IC50 [6]: > 1000 nM
IC50 [7]: 240 nM
inhibition [8]: Active
IC50 [9]: 300 nM
IC50 [10]: > 1000 nM
IC50 [12]: > 1000 nM
IC50 [13]: > 1000 nM
IC50 [14]: > 1000 nM
IC50 [15]: 400 nM
IC50 [16]: > 1000 nM
IC50 [17]: 240 nM
IC50 [18]: 10 nM
IC50 [20]: 710 nM
IC50 [21]: 200 nM
IC50 [22]: > 1000 nM
IC50 [23]: 790 nM
IC50 [24]: 110 nM
IC50 [25]: > 1000 nM
IC50 [26]: > 1000 nM
IC50 [27]: > 1000 nM
IC50 [28]: > 1000 nM
SMILES: CNC(=O)c1cc(Oc2ccc(NC(=O)Nc3cc(C(C)(C)C)nn3-c3ccc4ncccc4c3)c(F)c2)ccn1 [REBASTINIB]
IC50 [11]: > 1000 nM
inhibition [19]: Active
